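In this assay, cells in 96-well plates receive the compound at five concentrations for 48 hours. Endpoints are linearly interpolated between the surrounding concentrations. TGI is the concentration that stops growth completely.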
Legend:
Assay in all cases: DTP human tumour cell line panel, 48 h
SNB-75 CNS = tested on: SNB-75 CNS
A549 NSCLC = tested on: A549 NSCLC
KM12 colon = tested on: KM12 colon
NCI/ADR-RES ovarian = tested on: NCI/ADR-RES ovarian
CAKI-1 renal = tested on: CAKI-1 renal
BT-549 breast = tested on: BT-549 breast
786-0 renal = tested on: 786-0 renal
NCI-H460 lung = tested on: NCI-H460 lung
SK-MEL-2 melanoma = tested on: SK-MEL-2 melanoma
NCI-H226 lung = tested on: NCI-H226 lung
UACC-62 melanoma = tested on: UACC-62 melanoma
OVCAR-4 ovarian = tested on: OVCAR-4 ovarian
ACHN renal = tested on: ACHN renal
MDA-MB-231 breast = tested on: MDA-MB-231 breast
NCI-H522 lung = tested on: NCI-H522 lung
CCRF-CEM leukemia = tested on: CCRF-CEM leukemia

SMILES | TGI (SNB-75 CNS) [µM] | TGI (A549 NSCLC) [µM] | TGI (KM12 colon) [µM] | TGI (NCI/ADR-RES ovarian) [µM] | TGI (CAKI-1 renal) [µM] | TGI (BT-549 breast) [µM] | TGI (786-0 renal) [µM] | TGI (NCI-H460 lung) [µM] | TGI (SK-MEL-2 melanoma) [µM] | TGI (NCI-H226 lung) [µM] | TGI (UACC-62 melanoma) [µM] | TGI (OVCAR-4 ovarian) [µM] | TGI (ACHN renal) [µM] | TGI (MDA-MB-231 breast) [µM] | TGI (NCI-H522 lung) [µM] | TGI (CCRF-CEM leukemia) [µM]
O=C(Cc1nc2ccc(C(=O)c3ccccc3)cc2[nH]c1=O)C(=O)Nc1ccc(Br)cc1 | > 100 | > 100 | > 100 | > 100 | > 100 | > 100 | > 100 | > 100 | > 100 | > 100 | > 100 | > 100 | > 100 | > 100 | > 100 | 
c1cc2nnc1SCCSCCSc1ccc(nn1)SCCSCCS2 | 77.3 | > 100 | > 100 | > 100 | > 100 |  | > 100 | > 100 | > 100 | > 100 | > 100 | > 100 | > 100 | > 100 | > 100 | > 100
Cc1ccccc1C1OC1C(=O)c1ccccc1N (centres undefined) |  | > 100 | > 100 | > 100 | > 100 |  | > 100 | > 100 | > 100 | > 100 | > 100 | > 100 | > 100 | > 100 |  | > 100
Cc1ccc(-c2cc(N)n(-c3nc4c([nH]3)c(=O)n(C)c(=O)n4C)n2)cc1 |  | > 100 | 38.9 | 7.81 | 13.4 | 32.9 | 13.6 | 18.4 | 30.8 | 22.8 | 22.7 | > 100 | 10.7 | 27.8 | > 100 | > 100
C=CCN(CC=C)Cn1c(=S)sc2ccccc21 | > 100 | > 100 | > 100 | > 100 | 30.7 | > 100 | > 100 | > 100 | > 100 |  | > 100 | > 100 | > 100 | > 100 | 37.7 | 47.5
COc1cc(COC(=O)N[C@H](C(=O)O)C(C)(C)C)c([N+](=O)[O-])cc1OC | > 100 | > 100 | > 100 | > 100 |  | > 100 | > 100 | > 100 |  | > 100 | > 100 |  | > 100 |  |  | > 100
CC(C)=CCN1CC(C)C(=O)Nc2cc(Cl)ccc21 (centres undefined) |  | > 100 | 59.8 |  | 55.5 | 51.6 | 39.2 | 40.7 | 31.1 | 40.6 |  | 83.9 | 67.5 | 50.2 | 73.3 | > 100
Cc1c(/C=N\NC(=S)N2CCN(C(=S)N/N=C\c3c(C)n(C)n(-c4ccccc4)c3=O)CC2)c(=O)n(-c2ccccc2)n1C | 48.7 | > 100 | > 100 | > 100 | > 100 | > 100 | > 100 | > 100 | 92.7 | > 100 | > 100 | > 100 | > 100 | 73.9 | > 100 | 
O=C1CC(O)c2c1csc2Br (centres undefined) | > 100 | > 100 | 43.3 | 49 | > 100 | 52.9 | 51.1 | > 100 | > 100 |  | 59 | 96.2 | 45.4 | 55 | 30.4 | 55.1
O=C1CC(c2ccco2)C2(C(=O)NC(=O)NC2=O)C(c2ccco2)C1 (centres undefined) | > 75 | > 75 | > 75 | > 75 | > 75 | > 75 | > 75 | > 75 | > 75 |  | > 75 | > 75 | > 75 | > 75 | > 75 | > 75
CC12CC(c3ccccc3O1)C(C(=O)Nc1ccc(F)cc1)C(=O)N2 (centres undefined) |  | > 100 | > 100 | > 100 | > 100 | > 100 | > 100 | > 100 | > 100 |  | > 100 | > 100 | > 100 |  | > 100 | > 100
CCN(CC)CCn1c2cc3c(cc2c(=O)c2cccnc21)OCCO3 | > 10 | > 10 | > 10 | > 10 | > 10 | > 10 | > 10 |  |  |  | > 10 | > 10 | > 10 | > 10 | > 10 | > 10
c1ccc(C[P+]2(c3ccccc3)c3ccccc3-c3ccccc32)cc1 | > 100 | > 100 | > 100 |  | > 100 | > 100 | > 100 |  |  | > 100 | > 100 |  |  | > 100 | > 100 | > 100
Cc1c(Cl)ccc2c(=O)c3cccc(CC(=O)O)c3oc12 |  | > 100 | > 100 | > 100 | > 100 | > 100 | > 100 | > 100 | > 100 | > 100 |  | > 100 | > 100 | > 100 | > 100 | > 100
Nc1nc2ncc(SCc3ccc(C(=O)NC(CCC(=O)O)C(=O)O)cc3)cc2c(=O)[nH]1 (centres undefined) |  | > 100 | > 100 | > 100 | > 100 | > 100 | > 100 | > 100 | > 100 | > 100 | > 100 | > 100 | > 100 |  | > 100 | 
c1ccc([P+](CCNCCNCC[P+](c2ccccc2)(c2ccccc2)c2ccccc2)(c2ccccc2)c2ccccc2)cc1 | > 100 | > 100 | > 100 | > 100 |  | > 100 | > 100 | > 100 | > 100 | > 100 | > 100 | > 100 | > 100 | > 100 |  | 

— PubChem BioAssay (NCI)
